Test results: patent US20260365670A1, “EGFR INHIBITORS AND USES THEREOF” (DIZAL (JIANGSU) PHARMACEUTICAL CO., LTD., priority 2022, published 2026)
Read-outs that look alike come from different tables or passages of the source.

Columns and labels:
EGFR wild type = target: T1, EGFR wild type (Homo sapiens, UniProt P00533); assay: Inhibition of EGFR wild type biochemical enzymatic activity (HTRF); conditions: 1 mM ATP
T1 construct: purchased Carna Bio
Outline: (§1)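 In a buffer with 5 mM MgCl2, 1 mM MnCl2, 1 mM DTT and 0.01% CHAPS, enzyme turnover of 1 μM biotinylated TK substrate at 1 mM ATP is followed by HTRF after 1 h at room temperature. IC50 is obtained by a four-parameter fit.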

EGFR L858R = target: T2, EGFR L858R (Homo sapiens, UniProt P00533, L858R); assay: Inhibition of EGFR L858R biochemical enzymatic activity (HTRF); conditions: 1 mM ATP
T2 construct: purchased Carna Bio
Outline: as §1

EGFR L858R/T790M = target: T3, EGFR L858R/T790M (Homo sapiens, UniProt P00533, L858R/T790M); assay: Inhibition of EGFR L858R/T790M biochemical enzymatic activity (HTRF); conditions: 1 mM ATP
T3 construct: purchased Carna Bio
Outline: as §1

EGFR Exon19Del = target: T4, EGFR Exon19Del (Homo sapiens, UniProt P00533, DEL746-750); assay: Inhibition of EGFR Exon19Del biochemical enzymatic activity (HTRF); conditions: read-out: IC50 @Del19
T4 construct: purchased Carna Bio
Outline: as §1

EGFR Exon19Del/T790M = target: T5, EGFR Exon19Del/T790M (Homo sapiens, UniProt P00533, DEL746-750/T790M); assay: Inhibition of EGFR Exon19Del/T790M biochemical enzymatic activity (HTRF); conditions: 1 mM ATP
T5 construct: purchased Carna Bio
Outline: as §1

EGFR[T790M/C797S/L858R] = target: T6, EGFR[T790M/C797S/L858R] (Homo sapiens, UniProt P00533, C797S/L858R/T790M); assay: Inhibition of EGFR[T790M/C797S/L858R] biochemical enzymatic activity (HTRF); conditions: 1 mM ATP
T6 construct: purchased Carna Bio
Outline: as §1

[1] = target: T7, EGFR[T790M/C797S/d746-750] (Homo sapiens, UniProt P00533, C797S/DEL746-750/T790M); assay: Inhibition of EGFR[T790M/C797S/d746-750] biochemical enzymatic activity (HTRF)
T7 construct: purchased Carna Bio
Outline: as §1

EGFR (d746-750 C797S) = target: T8, EGFR (d746-750 C797S) (Homo sapiens, UniProt P00533, C797S/DEL746-750); assay: Inhibition of EGFR (d746-750 C797S) biochemical enzymatic activity (HTRF); conditions: 1 mM ATP
T8 construct: purchased signalchem
Outline: as §1

EGFR (C797S L858R) = target: T9, EGFR (C797S L858R) (Homo sapiens, UniProt P00533, C797S/L858R); assay: Inhibition of EGFR (C797S L858R) biochemical enzymatic activity (HTRF); conditions: 1 mM ATP
T9 construct: purchased signalchem
Outline: as §1

[2] = tested on: Ba/F3 cells expressing EGFR mutations; assay: Cell proliferation assay, Ba/F3 cells expressing EGFR mutations (CellTiter-Glo, 72 hours); format: cell-based
Outline: (§2)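 Growth over 72 h was quantified by CellTiter-Glo luminescence, normalised as (G3 − G0)/(DMSO G3 − G0), for PC-9 cells seeded at 500/well and EGFR-mutant Ba/F3 cells at 5000/well in RPMI1640. Compound concentration series added after overnight incubation; GI50 obtained from best-fit curves.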

PC-9 = assay: Cell proliferation assay, PC-9 cells (CellTiter-Glo, 72 hours); format: cell-based; conditions: PC9 cells, read-out: GI50 PC9
Outline: as §2

A-431 = assay: Cell proliferation assay, A-431 cells (GI50, Table 6); format: cell-based
[3] = EGFR WT, 1 h, room temperature, read-out: IC50 (nM) @WT
[4] = 1 h, room temperature, read-out: IC50 (nM) @L858R
[5] = EGFR L858R-T790M, 1 h, room temperature, read-out: IC50 (nM) @L858R-T790M
[6] = EGFR Del19, 1 mM ATP, 1 h, room temperature
[7] = EGFR Del19-T790M, 1 h, room temperature, read-out: IC50 (nM) @Del19-T790M
[8] = EGFR T790M-C797S-L858R, 1 h, room temperature, read-out: IC50 (nM) @T790M- C797S - L858R
[9] = EGFR T790M-C797S-Del19, 1 mM ATP, 1 h, room temperature, read-out: IC50 (nM) @T790M - C797S - Del19
[10] = EGFR Del19-C797S, 1 h, room temperature, read-out: IC50 (nM) @Del19-C797S
[11] = EGFR L858-C797S, 1 h, room temperature, read-out: IC50 (nM) @L858-C797S
[12] = Mus musculus, BaF3, 72 h, BaF3 cells, EGFR DEL19 - C797S, read-out: GI50 DEL19 - C797S/BaF3
[13] = Mus musculus, BaF3, 72 h, BaF3 cells, EGFR DEL19 - T790-C797S, read-out: GI50 DEL19 - T790-C797S/BaF3
[14] = Mus musculus, BaF3, 72 h, BaF3 cells, EGFR L858R - C797S, read-out: GI50 L858R - C797S/BaF3
[15] = Mus musculus, BaF3, 72 h, BaF3 cells, EGFR L858R - T790-C797S, read-out: GI50 L858R - T790-C797S/BaF3
[16] = Mus musculus, BaF3, 72 h, BaF3 cells, EGFR L858R - T790M, read-out: GI50 L858R - T790M/BaF3
[17] = Mus musculus, BaF3, 72 h, BaF3 cells, EGFR L858R, read-out: GI50 L858R/BaF3
[18] = Mus musculus, BaF3, 72 h, EGFR DEL19 - T790M, read-out: GI50 DEL19 - T790M
[19] = Homo sapiens, A-431, A-431 cells
[20] = EGFR wild type, 1 h at room temperature, read-out: IC50 @WT
[21] = 1 h at room temperature, read-out: IC50 @L858R
[22] = EGFR L858R/T790M, 1 h at room temperature, read-out: IC50 @L858R-T790M
[23] = EGFR Exon19Del, 1 mM ATP, 1 h at room temperature
[24] = EGFR Exon19Del/T790M, 1 h at room temperature, read-out: IC50 @Del19-T790M
[25] = EGFR[T790M/C797S/L858R], 1 h at room temperature, read-out: IC50 @T790M- C797S - L858R
[26] = EGFR[T790M/C797S/d746-750], 1 mM ATP, 1 h at room temperature, read-out: IC50 @T790M - C797S - Del19
[27] = EGFR (d746-750 C797S), 1 h at room temperature, read-out: IC50 @Del19-C797S
[28] = EGFR (C797S L858R), 1 h at room temperature, read-out: IC50 @L858-C797S
[29] = BaF3 cells, EGFR DEL19 - C797S, read-out: GI50 DEL19 - C797S/BaF3
[30] = BaF3 cells, EGFR DEL19 - T790-C797S, read-out: GI50 DEL19 - T790-C797S/BaF3
[31] = BaF3 cells, EGFR L858R - C797S, read-out: GI50 L858R - C797S/BaF3
[32] = BaF3 cells, EGFR L858R - T790-C797S, read-out: GI50 L858R - T790-C797S/BaF3
[33] = BaF3 cells, EGFR L858R - T790M, read-out: GI50 L858R - T790M/BaF3
[34] = BaF3 cells, EGFR L858R, read-out: GI50 L858R/BaF3
[35] = EGFR DEL19 - T790M, read-out: GI50 DEL19 - T790M

T5 sequence (P00533 with tags, fused parts or gaps DEL746-750/T790M limits assumed): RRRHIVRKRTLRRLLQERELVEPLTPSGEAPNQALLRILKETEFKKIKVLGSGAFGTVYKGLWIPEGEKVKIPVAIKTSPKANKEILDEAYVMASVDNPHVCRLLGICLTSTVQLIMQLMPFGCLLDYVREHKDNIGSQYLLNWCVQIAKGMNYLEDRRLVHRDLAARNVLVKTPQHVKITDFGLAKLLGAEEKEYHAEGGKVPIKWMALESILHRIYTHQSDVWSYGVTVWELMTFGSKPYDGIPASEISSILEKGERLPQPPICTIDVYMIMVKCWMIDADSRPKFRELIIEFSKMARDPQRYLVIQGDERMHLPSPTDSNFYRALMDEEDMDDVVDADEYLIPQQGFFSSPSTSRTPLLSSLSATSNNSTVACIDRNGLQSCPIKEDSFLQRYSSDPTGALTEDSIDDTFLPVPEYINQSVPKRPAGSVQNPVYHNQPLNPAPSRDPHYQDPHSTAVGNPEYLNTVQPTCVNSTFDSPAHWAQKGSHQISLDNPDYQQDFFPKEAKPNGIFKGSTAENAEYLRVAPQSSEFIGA
T9 sequence (P00533 25-1210 C797S/L858R): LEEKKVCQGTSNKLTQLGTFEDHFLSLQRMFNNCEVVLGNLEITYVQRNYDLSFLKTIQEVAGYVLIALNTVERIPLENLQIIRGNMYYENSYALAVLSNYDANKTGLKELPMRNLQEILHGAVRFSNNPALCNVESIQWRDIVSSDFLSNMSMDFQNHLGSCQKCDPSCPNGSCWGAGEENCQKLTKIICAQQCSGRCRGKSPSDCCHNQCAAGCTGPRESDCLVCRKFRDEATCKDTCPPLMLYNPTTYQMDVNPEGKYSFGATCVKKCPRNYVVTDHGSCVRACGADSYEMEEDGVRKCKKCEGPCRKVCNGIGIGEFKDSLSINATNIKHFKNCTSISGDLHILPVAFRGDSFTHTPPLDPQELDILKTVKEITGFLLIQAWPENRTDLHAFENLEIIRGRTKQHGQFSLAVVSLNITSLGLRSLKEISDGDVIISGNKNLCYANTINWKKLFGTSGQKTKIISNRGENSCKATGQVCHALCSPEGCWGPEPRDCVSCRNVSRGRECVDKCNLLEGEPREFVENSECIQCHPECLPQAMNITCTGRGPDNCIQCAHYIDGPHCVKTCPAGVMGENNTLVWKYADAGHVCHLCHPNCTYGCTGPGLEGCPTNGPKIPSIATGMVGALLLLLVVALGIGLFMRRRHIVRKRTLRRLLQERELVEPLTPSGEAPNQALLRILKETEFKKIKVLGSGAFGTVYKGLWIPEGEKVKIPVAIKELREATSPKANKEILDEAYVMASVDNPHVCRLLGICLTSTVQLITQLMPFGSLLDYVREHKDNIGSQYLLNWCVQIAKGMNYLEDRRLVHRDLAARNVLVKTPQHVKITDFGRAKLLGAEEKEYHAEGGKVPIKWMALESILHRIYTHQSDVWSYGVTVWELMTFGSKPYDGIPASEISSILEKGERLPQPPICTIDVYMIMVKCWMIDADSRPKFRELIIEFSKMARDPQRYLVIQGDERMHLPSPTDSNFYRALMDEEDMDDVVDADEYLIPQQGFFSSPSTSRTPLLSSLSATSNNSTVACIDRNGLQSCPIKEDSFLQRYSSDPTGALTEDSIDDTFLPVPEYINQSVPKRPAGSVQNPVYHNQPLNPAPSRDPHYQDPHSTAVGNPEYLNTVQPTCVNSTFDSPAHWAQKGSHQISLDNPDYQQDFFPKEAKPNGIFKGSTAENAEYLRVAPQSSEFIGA
T8 sequence (P00533 with tags, fused parts or gaps DEL746-750/C797S limits assumed): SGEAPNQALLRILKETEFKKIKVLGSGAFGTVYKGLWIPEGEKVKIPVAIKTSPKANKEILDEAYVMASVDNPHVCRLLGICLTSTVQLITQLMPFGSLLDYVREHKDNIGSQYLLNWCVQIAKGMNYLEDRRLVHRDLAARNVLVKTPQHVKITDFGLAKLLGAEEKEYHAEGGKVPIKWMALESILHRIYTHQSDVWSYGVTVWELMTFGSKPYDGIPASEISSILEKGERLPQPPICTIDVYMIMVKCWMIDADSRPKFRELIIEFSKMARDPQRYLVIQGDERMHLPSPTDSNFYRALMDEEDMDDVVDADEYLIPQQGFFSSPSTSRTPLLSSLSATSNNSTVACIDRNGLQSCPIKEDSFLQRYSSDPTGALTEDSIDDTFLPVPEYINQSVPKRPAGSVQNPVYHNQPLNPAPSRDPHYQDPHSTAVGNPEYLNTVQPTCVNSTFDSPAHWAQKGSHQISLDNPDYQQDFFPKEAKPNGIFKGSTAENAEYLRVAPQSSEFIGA
T1 sequence (P00533 25-1210): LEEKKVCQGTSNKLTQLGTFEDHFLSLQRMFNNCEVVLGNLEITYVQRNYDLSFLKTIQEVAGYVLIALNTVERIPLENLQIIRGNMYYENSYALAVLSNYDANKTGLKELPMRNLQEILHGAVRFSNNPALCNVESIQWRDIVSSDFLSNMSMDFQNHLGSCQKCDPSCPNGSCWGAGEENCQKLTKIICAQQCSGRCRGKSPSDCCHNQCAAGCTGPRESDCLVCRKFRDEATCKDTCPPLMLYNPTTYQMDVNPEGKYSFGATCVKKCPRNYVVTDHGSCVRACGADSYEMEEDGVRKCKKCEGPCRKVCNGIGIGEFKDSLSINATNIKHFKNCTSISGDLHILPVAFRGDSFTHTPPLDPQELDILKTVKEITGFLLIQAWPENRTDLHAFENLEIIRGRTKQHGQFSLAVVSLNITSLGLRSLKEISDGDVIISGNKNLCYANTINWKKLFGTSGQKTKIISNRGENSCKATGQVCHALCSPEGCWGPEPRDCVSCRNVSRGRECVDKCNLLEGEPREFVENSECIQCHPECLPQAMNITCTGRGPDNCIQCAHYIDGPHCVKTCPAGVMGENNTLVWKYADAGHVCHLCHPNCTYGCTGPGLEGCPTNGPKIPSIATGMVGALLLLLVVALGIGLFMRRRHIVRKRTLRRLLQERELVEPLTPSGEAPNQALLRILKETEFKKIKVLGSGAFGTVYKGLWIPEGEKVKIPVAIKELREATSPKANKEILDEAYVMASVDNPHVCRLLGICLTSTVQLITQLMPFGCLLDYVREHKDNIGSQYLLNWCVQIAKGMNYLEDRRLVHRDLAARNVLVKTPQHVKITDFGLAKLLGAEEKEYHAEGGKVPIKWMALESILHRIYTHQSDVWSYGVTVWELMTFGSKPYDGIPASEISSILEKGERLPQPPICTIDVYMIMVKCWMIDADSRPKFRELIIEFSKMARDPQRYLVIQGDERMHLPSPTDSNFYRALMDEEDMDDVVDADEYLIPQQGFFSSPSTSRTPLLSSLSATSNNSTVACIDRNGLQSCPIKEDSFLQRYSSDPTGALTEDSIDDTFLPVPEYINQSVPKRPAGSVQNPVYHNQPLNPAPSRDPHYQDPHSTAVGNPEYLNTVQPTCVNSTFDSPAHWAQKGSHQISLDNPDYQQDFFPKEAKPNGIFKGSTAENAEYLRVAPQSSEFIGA
T7 sequence (P00533 with tags, fused parts or gaps DEL746-750/T790M/C797S limits assumed): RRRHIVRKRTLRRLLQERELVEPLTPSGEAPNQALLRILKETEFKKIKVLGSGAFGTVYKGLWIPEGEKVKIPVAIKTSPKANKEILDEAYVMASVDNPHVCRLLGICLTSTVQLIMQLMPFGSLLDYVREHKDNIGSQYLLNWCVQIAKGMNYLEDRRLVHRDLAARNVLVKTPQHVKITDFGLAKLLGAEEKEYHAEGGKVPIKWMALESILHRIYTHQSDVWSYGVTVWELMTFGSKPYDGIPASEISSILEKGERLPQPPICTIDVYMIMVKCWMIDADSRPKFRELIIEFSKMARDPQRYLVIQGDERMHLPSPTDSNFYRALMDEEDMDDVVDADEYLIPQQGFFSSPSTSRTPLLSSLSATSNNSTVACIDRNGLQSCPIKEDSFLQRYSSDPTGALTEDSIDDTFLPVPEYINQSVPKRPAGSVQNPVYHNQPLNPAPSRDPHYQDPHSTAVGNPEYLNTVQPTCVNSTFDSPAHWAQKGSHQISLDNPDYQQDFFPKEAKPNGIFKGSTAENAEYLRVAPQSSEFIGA
T4 sequence (P00533 with tags, fused parts or gaps DEL746-750 limits assumed): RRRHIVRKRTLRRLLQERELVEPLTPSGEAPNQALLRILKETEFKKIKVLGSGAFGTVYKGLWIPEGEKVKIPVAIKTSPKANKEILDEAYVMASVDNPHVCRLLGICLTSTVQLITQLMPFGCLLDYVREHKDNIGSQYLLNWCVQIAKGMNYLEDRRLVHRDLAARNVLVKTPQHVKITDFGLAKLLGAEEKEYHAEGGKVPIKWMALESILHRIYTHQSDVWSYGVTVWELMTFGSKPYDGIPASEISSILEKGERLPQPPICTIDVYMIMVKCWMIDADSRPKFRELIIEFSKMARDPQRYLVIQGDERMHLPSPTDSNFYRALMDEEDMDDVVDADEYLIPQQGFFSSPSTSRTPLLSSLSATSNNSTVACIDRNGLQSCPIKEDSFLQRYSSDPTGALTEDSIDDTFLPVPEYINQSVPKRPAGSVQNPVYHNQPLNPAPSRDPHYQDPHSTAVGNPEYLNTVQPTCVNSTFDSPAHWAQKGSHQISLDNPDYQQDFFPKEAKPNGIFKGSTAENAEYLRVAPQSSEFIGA

IC50 (EGFR wild type; [3]) [nM]	IC50 (EGFR L858R; [4]) [nM]	IC50 (EGFR L858R/T790M; [5]) [nM]	IC50 (EGFR Exon19Del; [6]) [nM]	IC50 (EGFR Exon19Del/T790M; [7]) [nM]	IC50 (EGFR[T790M/C797S/L858R]; [8]) [nM]	IC50 [1, 9] [nM]	IC50 (EGFR (d746-750 C797S); [10]) [nM]	IC50 (EGFR (C797S L858R); [11]) [nM]	GI50 [2, 12] [nM]	GI50 [2, 13] [nM]	GI50 [2, 14] [nM]	GI50 [2, 15] [nM]	GI50 [2, 16] [nM]	GI50 [2, 17] [nM]	GI50 [2, 18] [nM]	GI50 (PC-9; Homo sapiens, PC-9, 72 h) [nM]	GI50 (A-431; [19]) [nM]	IC50 (EGFR wild type; [20]) [nM]	IC50 (EGFR L858R; [21]) [nM]	further results	Structure (SMILES)
> 5000	1480	15	150	6.5	23	13	2200	112	95	20	736	51	98	751	22	410	4390				Cc1cc2cc(n1)-c1cnn(C)c1OCCN1CC3CCC(CC3)(C1)n1c(nc3ccccc31)NC2=O [Example B1, 15,21-Dimethyl-23-oxa-2,9,11,16,20,21,26-heptaazaheptacyclo[26.2.2.1^{1,26}.1^{13,17}.0^{2,10}.0^{3,8}.0^{18,22}]tetratriaconta-3,5,7,9,13,15,17(34),18(22),19-nonaen-12-one]
																		2970	142	IC50 (EGFR L858R/T790M; [22]): 6.7 nM; IC50 (EGFR Exon19Del; [23]): 13 nM; IC50 (EGFR Exon19Del/T790M; [24]): 6.9 nM; IC50 (EGFR[T790M/C797S/L858R]; [25]): 3 nM; IC50 [1, 26]: 3.4 nM; IC50 (EGFR (d746-750 C797S); [27]): 4.5 nM; IC50 (EGFR (C797S L858R); [28]): 44 nM; GI50 [2, 29]: 2 nM; GI50 [2, 30]: 2 nM; GI50 [2, 31]: 6 nM; GI50 [2, 32]: 2 nM; GI50 [2, 33]: 2 nM; GI50 [2, 34]: 13 nM; GI50 [2, 35]: 2 nM; GI50 (PC-9): 12 nM; GI50 (A-431; A-431 cells): 1370 nM	Cc1cc2cc(n1)-c1cnn(C)c1OCCN1CC3CCC(C3)(C1)n1c(nc3ccc(N4CC(N5CCOCC5)C4)cc31)NC2=O (single isomer, unassigned) [Example B48B]
954	24	7.2	7	4.3	11	7.3	36	3.1	7.5	1.7	58	5.2	11	41	2.5	52	2020				Cc1cc2cc(n1)-c1cnn(C)c1OCCN1CC3CCC(CC3)(C1)n1c(nc3ccc(N4CCN(C)CC4)cc31)NC2=O [Example B3, 15,21-dimethyl-5-(4-methylpiperazin-1-yl)-23-oxa-2,9,11,16,20,21,26-heptaazaheptacyclo[26.2.2.1^{1,26}.1^{13,17}.0^{2,10}.0^{3,8}.0^{18,22}]tetratriaconta-3,5,7,9,13,15,17(34),18(22),19-nonaen-12-one]
216	6.2	5.1	2.8	2.9	6.1	3.2	1.7	4.9	2.6	26	14	30	50	9.6	22	112	529				C[C@@H]1CCCOc2ccc(F)cc2-c2cc(cn(C)c2=O)C(=O)Nc2nc3ccc(N4CCN(C)CC4)cc3n2C1 [Example A110, (12R)-4-fluoro-12,27-dimethyl-17-(4-methylpiperazin-1-yl)-8-oxa-14,21,23,27-tetraazapentacyclo[23.3.1.0^{2,7}.0^{14,22}.0^{15,20}]nonacosa-1(29),2(7),3,5,15,17,19,21,25-nonaene-24,28-dione]
																		> 5000	> 5000	IC50 (EGFR L858R/T790M; [22]): > 5000 nM; IC50 (EGFR Exon19Del; [23]): 2240 nM; IC50 (EGFR Exon19Del/T790M; [24]): > 5000 nM; IC50 (EGFR[T790M/C797S/L858R]; [25]): > 5000 nM; IC50 [1, 26]: > 5000 nM; IC50 (EGFR (d746-750 C797S); [27]): 1020 nM; IC50 (EGFR (C797S L858R); [28]): 2920 nM; GI50 [2, 29]: 114 nM; GI50 [2, 30]: 172 nM; GI50 [2, 31]: 426 nM; GI50 [2, 32]: 34 nM; GI50 [2, 33]: 168 nM; GI50 [2, 34]: 846 nM; GI50 [2, 35]: 140 nM; GI50 (PC-9): 973 nM; GI50 (A-431; A-431 cells): 7000 nM	Cc1cc2cc(n1)-c1cnn(C)c1OCCN1CC3CCC(C3)(C1)n1c(nc3ccc(N4CC(N5CCOCC5)C4)cc31)NC2=O (single isomer, unassigned) [Example B48A]
